The values that follow are results of earlier work, collected in article PMC6838683, “Discovery of Human Signaling Systems: Pairing Peptides to G Protein-Coupled Receptors” (Cell, 2019).

The target of this data set is human GPCRs. The arrangement: method as in Guide to Pharmacology database. Conditions: max reported value, ref Guide to Pharmacology database, cited from earlier work. An excerpt: Supplement mmc1.xlsx, sheet "HumanGPCRLigands" | column: pKi_value; pKd_value; pEC50_value; pIC50_value
The mark [1] stands for this setting: receptor TACR1 (nk1r_human, P25103).
Setting [2] is: receptor TACR2 (nk2r_human, P21452).
Setting [3] is: receptor TACR3 (nk3r_human, P29371).

Where two headings read alike, the source gives them in different places. Residues, ends and D or L forms follow the SMILES beside them.

As for `CC[C@H](C)[C@H](NC(=O)[C@@H]1CCCN1C(=O)[C@@H](NC(=O)[C@@H](N)Cc1ccccc1)C(C)C)C(=O)N[C@@H](Cc1ccccc1)C(=O)N[C@H](C(=O)N[C@@H](Cc1ccc(O)cc1)C(=O)NCC(=O)N[C@@H](CCC(=O)O)C(=O)N[C@@H](CC(C)C)C(=O)N[C@@H](CCC(N)=O)C(=O)N[C@@H](CCCNC(=N)N)C(=O)N[C@@H](CCSC)C(=O)N[C@@H](CCC(N)=O)C(=O)N[C@@H](CCC(=O)O)C(=O)N[C@@H](CCCCN)C(=O)N[C@@H](CCC(=O)O)C(=O)N[C@@H](CCCNC(=N)N)C(=O)N[C@@H](CC(N)=O)C(=O)N[C@@H](CCCCN)C(=O)NCC(=O)N[C@@H](CCC(N)=O)C(=O)O)[C@@H](C)O` [motilin], the pKi_value (receptor mtlr_human (MLNR, O43193)) is 8.7.

As to `CSCC[C@H](NC(=O)[C@H](CC(C)C)NC(=O)CNC(=O)[C@@H](NC(=O)[C@H](Cc1ccccc1)NC(=O)[C@H](CO)NC(=O)[C@H](CC(=O)O)NC(=O)[C@@H](NC(=O)[C@H](CCCCN)NC(=O)[C@@H](N)Cc1cnc[nH]1)[C@@H](C)O)C(C)C)C(N)=O` [neurokinin A], the pKi_value is 9.3 under setting [1], 9.1 under setting [2] and 6.3 under setting [3]. Also, under setting [3], the pEC50_value was 7.4.

Take `CSCC[C@H](NC(=O)[C@H](CC(C)C)NC(=O)CNC(=O)[C@@H](NC(=O)[C@H](Cc1ccccc1)NC(=O)[C@H](Cc1ccccc1)NC(=O)[C@H](CC(=O)O)NC(=O)[C@H](Cc1cnc[nH]1)NC(=O)[C@H](CCSC)NC(=O)[C@@H](N)CC(=O)O)C(C)C)C(N)=O` [neurokinin B]: the pKi_value was 6.4 under setting [1], 7.7 under setting [2] and 9.2 under setting [3]. Besides, the pEC50_value under setting [3] is on record as 8.4.

Turning to `CSCC[C@H](NC(=O)CNC(=O)[C@@H](NC(=O)CNC(=O)[C@@H](NC(=O)CNC(=O)[C@H](CC(N)=O)NC(=O)[C@H](CCCNC(=N)N)NC(=O)[C@H](Cc1ccccc1)NC(=O)[C@@H](N)CO)C(C)C)[C@@H](C)O)C(=O)N[C@@H](CCCCN)C(=O)N[C@@H](CCCCN)C(=O)N[C@H](C(=O)N[C@@H](CO)C(=O)N[C@@H](Cc1ccccc1)C(=O)N[C@@H](CCC(N)=O)C(=O)N[C@@H](CCCNC(=N)N)C(=O)N[C@@H](C)C(=O)N[C@@H](CCCCN)C(=O)N[C@@H](CO)C(=O)O)[C@@H](C)O` [neuropeptide S] (H-SFRNGVGTGMKKTSFQRAKS-OH), where the note is “receptor npsr1_human (NPSR1, Q6W5P4)”, the pEC50_value is listed as 8.

With `NCC(O)c1ccc(O)cc1` (centres unmarked) [octopamine], under “receptor taar1_human (TAAR1, Q96RJ0)”, the pEC50_value was 5.8.

With `CC[C@H](C)[C@H](NC(=O)[C@H](CC(C)C)NC(=O)[C@@H](NC(=O)[C@@H](N)CCSC)[C@@H](C)O)C(=O)NCC(=O)N[C@@H](C)C(=O)N[C@@H](C)C(=O)N[C@@H](Cc1cnc[nH]1)C(=O)N[C@@H](CC(N)=O)C(=O)NCC(=O)N[C@@H](CO)C(=O)N[C@@H](C)C(=O)N[C@@H](CCC(N)=O)C(=O)N[C@@H](CC(C)C)C(=O)N[C@@H](CC(C)C)C(=O)N[C@@H](CCCN=C(N)N)C(=O)N[C@@H](CCC(N)=O)C(=O)N[C@@H](CC(C)C)C(=O)N[C@@H](CCCN=C(N)N)C(=O)NCC(=O)N[C@@H](CCC(N)=O)C(=O)N[C@@H](CC(C)C)C(=O)NCC(=O)N1CCC[C@H]1C(=O)N1CCC[C@H]1C(=O)NCC(=O)N[C@@H](CO)C(=O)N[C@@H](CCCN=C(N)N)C(N)=O` [orexin-B] (H-MTLIGAAHNGSAQLLRQLRGQLGPPGSR-NH2), the pEC50_value (receptor HCRTR1 (ox1r_human, O43613)) is 9.2 and the pEC50_value (receptor HCRTR2 (ox2r_human, O43614)) is reported as 10.

As for `CC[C@H](C)[C@@H]1NC(=O)[C@H](Cc2ccc(O)cc2)NC(=O)[C@@H](N)CSSC[C@@H](C(=O)N2CCC[C@H]2C(=O)N[C@@H](CC(C)C)C(=O)NCC(N)=O)NC(=O)[C@H](CC(N)=O)NC(=O)[C@H](CCC(N)=O)NC1=O` [oxytocin], the pKi_value reads like this: (receptor AVPR1A (v1ar_human, P37288)) 8.3; (receptor AVPR1B (v1br_human, P47901)) 7; (receptor AVPR2 (v2r_human, P30518)) 6.8; (receptor OXTR (oxyr_human, P30559)) 9.6.
